Assay results as given in patent US11123337B2, “4-methylsulfonyl-substituted piperidine urea compounds” (MYOKARDIA, INC., priority 2015, dated 2021).

Target: bovine cardiac myosin (Bos taurus, UniProt Q9BE39)
Assay: Myosin activation assay (PK/LDH-coupled ATPase, bovine cardiac myofibrils)
Format: biochemical
Conditions: AC20 = concentration at which total response is increased by twenty percent
Procedure: Small molecule agents were assessed for their ability to activate the enzymatic activity of bovine cardiac myosin using a biochemical assay that couples the release of ADP (adenosine diphosphate) from cardiac myosin to an enzymatic coupling system consisting of pyruvate kinase and lactate dehydrogenase (PK/LDH) and monitoring the absorbance decrease of NADH (at 340 nm) as a function of time. PK converts ADP to ATP (adenosine triphosphate) by converting PEP (phosphoenolpyruvate) to pyruvate. Pyruvate is then converted to lactate by LDH by converting NADH (nicotinamide adenine dinucleotide) to NAD (oxidized nicotinamide adenine dinucleotide). The source of cardiac myosin was from bovine heart in the form of skinned myofibrils. Prior to testing small molecule agents, the bovine myofibrils were assessed for their calcium responsiveness and the calcium concentration that achieves either a 50% (pCa50 or pCa=˜6) or <5% (pCa=10) activation of the myofibril system was chosen as the final condition for assessing the activation activity of the small molecule agents. All enzymatic activity was measured in a buffered solution containing 12 mM PIPES (piperazine-N,N′-bis(2-ethanesulfonic acid), 2 mM magnesium chloride at pH 6.8 (PM12 buffer). Final assay conditions were 1 mg/mL of bovine cardiac myofibrils, 0.4 mM PK/LDH, 50 uM ATP, 0.1 mg/mL BSA (bovine serum albumin), 10 ppm antifoam, 2 mM BME, 0.5 mM NADH, 1.5 mM PEP at the desired free calcium concentration required to achieve either 50% or <5% activation of the myofibrils.
A dilution series of compound was created in DMSO such that the final desired concentration of compound would be achieved in a volume of […] with a fixed DMSO concentration of 3.3% (v/v). Typically a 1 μL of the dilution series was added to a 384 well plate to achieve a 10 point dose response. Following the addition of 14 μL of a solution containing bovine cardiac myofibrils, PK/LDH and a solution of calcium (that achieved the desired activation), the enzymatic reaction was started with the addition of 15 μL of a solution containing ATP, PEP and NADH. The reaction progress was followed in a PerkinElmer Envision plate reader at ambient temperature using clear bottom plates. The plate reader was configured to read absorbance at 340 nm in kinetics mode for 15 minutes. Data were recorded as the slope of the absorbance response to time. The slopes of the absorbance response as a function of time were normalized to slopes on the plate containing DMSO. This normalized rate was then plotted as a function of small molecule concentration and the data was fitted to a four-parameter fit using EXCEL XLfit. The concentration at which the total response is increased by twenty or fifty percent is reported as AC20 or AC50.

Chain of bovine cardiac myosin (Q9BE39 whole entry): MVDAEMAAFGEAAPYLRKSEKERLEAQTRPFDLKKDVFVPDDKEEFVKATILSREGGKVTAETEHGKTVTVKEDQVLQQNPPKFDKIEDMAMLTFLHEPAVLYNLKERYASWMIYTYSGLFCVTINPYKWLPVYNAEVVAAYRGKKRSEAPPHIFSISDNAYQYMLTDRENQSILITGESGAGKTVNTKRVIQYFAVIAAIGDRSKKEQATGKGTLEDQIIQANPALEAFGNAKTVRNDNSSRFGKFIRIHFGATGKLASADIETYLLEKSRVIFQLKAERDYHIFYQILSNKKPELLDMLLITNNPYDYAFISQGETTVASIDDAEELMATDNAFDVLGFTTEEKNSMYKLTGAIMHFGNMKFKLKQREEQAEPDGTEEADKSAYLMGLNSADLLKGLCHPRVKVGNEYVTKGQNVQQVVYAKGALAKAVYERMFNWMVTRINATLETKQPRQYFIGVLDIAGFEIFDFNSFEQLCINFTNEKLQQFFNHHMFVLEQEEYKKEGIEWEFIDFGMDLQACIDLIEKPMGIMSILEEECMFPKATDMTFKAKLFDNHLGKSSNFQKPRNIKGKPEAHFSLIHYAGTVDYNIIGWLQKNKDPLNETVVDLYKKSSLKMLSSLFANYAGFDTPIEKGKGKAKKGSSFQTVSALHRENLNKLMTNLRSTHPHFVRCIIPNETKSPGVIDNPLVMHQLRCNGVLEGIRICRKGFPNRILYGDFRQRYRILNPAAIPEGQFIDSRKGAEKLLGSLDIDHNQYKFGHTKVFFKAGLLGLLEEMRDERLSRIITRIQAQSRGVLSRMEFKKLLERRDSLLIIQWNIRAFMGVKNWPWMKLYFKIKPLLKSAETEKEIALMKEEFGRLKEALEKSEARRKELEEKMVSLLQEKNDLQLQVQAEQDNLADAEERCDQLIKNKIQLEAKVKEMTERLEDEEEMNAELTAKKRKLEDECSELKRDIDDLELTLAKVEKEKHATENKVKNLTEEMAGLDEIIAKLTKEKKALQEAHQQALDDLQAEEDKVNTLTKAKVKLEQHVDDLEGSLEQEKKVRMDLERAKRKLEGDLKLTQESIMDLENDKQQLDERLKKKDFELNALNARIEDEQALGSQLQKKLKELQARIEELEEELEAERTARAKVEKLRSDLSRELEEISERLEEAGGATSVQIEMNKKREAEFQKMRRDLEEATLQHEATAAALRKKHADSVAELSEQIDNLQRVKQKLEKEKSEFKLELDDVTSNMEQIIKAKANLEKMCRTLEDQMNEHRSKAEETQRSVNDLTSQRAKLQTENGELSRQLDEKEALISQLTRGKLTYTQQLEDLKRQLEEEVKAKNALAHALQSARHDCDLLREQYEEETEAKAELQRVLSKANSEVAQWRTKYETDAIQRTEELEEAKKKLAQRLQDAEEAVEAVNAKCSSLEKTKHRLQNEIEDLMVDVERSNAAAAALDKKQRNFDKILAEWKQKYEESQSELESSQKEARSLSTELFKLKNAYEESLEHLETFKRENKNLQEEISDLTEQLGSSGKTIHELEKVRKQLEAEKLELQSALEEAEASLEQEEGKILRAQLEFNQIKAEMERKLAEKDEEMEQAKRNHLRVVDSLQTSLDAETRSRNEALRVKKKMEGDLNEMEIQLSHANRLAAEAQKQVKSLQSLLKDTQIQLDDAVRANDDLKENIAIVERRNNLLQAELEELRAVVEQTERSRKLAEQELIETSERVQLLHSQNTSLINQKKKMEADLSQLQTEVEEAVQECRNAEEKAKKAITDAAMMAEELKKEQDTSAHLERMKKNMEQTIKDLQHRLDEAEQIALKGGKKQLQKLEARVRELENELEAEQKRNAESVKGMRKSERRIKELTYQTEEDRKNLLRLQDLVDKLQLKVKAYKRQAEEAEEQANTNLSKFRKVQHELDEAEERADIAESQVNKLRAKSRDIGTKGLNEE
Chain of bovine cardiac myosin (P85100 whole entry partner): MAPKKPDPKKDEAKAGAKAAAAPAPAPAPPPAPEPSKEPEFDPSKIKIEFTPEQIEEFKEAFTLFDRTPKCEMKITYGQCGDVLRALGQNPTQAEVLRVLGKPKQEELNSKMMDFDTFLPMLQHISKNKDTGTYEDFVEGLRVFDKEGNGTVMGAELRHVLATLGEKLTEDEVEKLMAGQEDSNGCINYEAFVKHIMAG
Chain of bovine cardiac myosin (Q3SZE5 whole entry partner): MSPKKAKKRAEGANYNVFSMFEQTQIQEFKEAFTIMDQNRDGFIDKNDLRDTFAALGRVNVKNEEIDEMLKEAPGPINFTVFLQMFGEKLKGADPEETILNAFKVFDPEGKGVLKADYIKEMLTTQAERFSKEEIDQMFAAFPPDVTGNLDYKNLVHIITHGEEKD

Cc1cc(C(F)(F)F)ccc1S(=O)(=O)C(F)(F)C1CCN(C(=O)Nc2ccnnc2)CC1 [Compound 65, 4-(difluoro((2-methyl-4-(trifluoromethyl)phenyl)sulfonyl)methyl)-N-(pyridazin-4-yl)piperidine-1-carboxamide]
Myosin Activation (AC20): ++ (++ represents myosin activation value AC20 from 2 μM-5 μM)

Cn1ncc2c(S(=O)(=O)C(F)(F)C3CCN(C(=O)Nc4ccnnc4)CC3)cccc21 [Compound 66, 4-(difluoro((1-methyl-1H-indazol-4-yl)sulfonyl)methyl)-N-(pyridazin-4-yl)piperidine-1-carboxamide]
Myosin Activation (AC20): ++ (++ represents myosin activation value AC20 from 2 μM-5 μM)

O=C(Nc1ccnnc1)N1CCC(C(F)(F)S(=O)(=O)c2ccc(N3CCC3)nc2)CC1 [Compound 67, 4-(((6-(azetidin-1-yl)pyridin-3-yl)sulfonyl)difluoromethyl)-N-(pyridazin-4-yl)piperidine-1-carboxamide]
Myosin Activation (AC20): ++ (++ represents myosin activation value AC20 from 2 μM-5 μM)

COc1ccc(F)cc1S(=O)(=O)C(F)(F)C1CCN(C(=O)Nc2ccnnc2)CC1 [Compound 68, 4-(difluoro((5-fluoro-2-methoxyphenyl)sulfonyl)methyl)-N-(pyridazin-4-yl)piperidine-1-carboxamide]
Myosin Activation (AC20): + (+ represents myosin activation value AC20 > 5 μM)

O=C(Nc1ccnnc1)N1CCC(C(F)(F)S(=O)(=O)c2ccc(C(F)(F)F)c(F)c2)CC1 [Compound 69, 4-(difluoro((3-fluoro-4-(trifluoromethyl)phenyl)sulfonyl)methyl)-N-(pyridazin-4-yl)piperidine-1-carboxamide]
Myosin Activation (AC20): ++ (++ represents myosin activation value AC20 from 2 μM-5 μM)

Cc1cnccc1S(=O)(=O)C(F)(F)C1CCN(C(=O)Nc2ccnnc2)CC1 [Compound 70, 4-(difluoro((3-methylpyridin-4-yl)sulfonyl)methyl)-N-(pyridazin-4-yl)piperidine-1-carboxamide]
Myosin Activation (AC20): ++ (++ represents myosin activation value AC20 from 2 μM-5 μM)

O=C(Nc1ccnnc1)N1CCC(C(F)(F)S(=O)(=O)c2cccc3c2COC3)CC1 [Compound 71, 4-(((1,3-dihydroisobenzofuran-4-yl)sulfonyl)difluoromethyl)-N-(pyridazin-4-yl)piperidine-1-carboxamide]
Myosin Activation (AC20): ++ (++ represents myosin activation value AC20 from 2 μM-5 μM)

COc1ccc(Cl)c(S(=O)(=O)C(F)(F)C2CCN(C(=O)Nc3ccnnc3)CC2)c1 [Compound 72, 4-(((2-chloro-5-methoxyphenyl)sulfonyl)difluoromethyl)-N-(pyridazin-4-yl)piperidine-1-carboxamide]
Myosin Activation (AC20): +++ (+++ represents myosin activation value AC20 < 2 μM)

Cc1cc(OC(F)(F)F)ccc1S(=O)(=O)C(F)(F)C1CCN(C(=O)Nc2ccnnc2)CC1 [Compound 73, 4-(difluoro((2-methyl-4-(trifluoromethoxy)phenyl)sulfonyl)methyl)-N-(pyridazin-4-yl)piperidine-1-carboxamide]
Myosin Activation (AC20): ++ (++ represents myosin activation value AC20 from 2 μM-5 μM)

O=C(Nc1ccnnc1)N1CCC(C(F)(F)S(=O)(=O)c2cc(OC(F)(F)F)ccc2Cl)CC1 [Compound 74, 4-(((2-chloro-5-(trifluoromethoxy)phenyl)sulfonyl)difluoromethyl)-N-(pyridazin-4-yl)piperidine-1-carboxamide]
Myosin Activation (AC20): +++ (+++ represents myosin activation value AC20 < 2 μM)

N#Cc1ccc(S(=O)(=O)C(F)(F)C2CCN(C(=O)Nc3ccnnc3)CC2)c(Cl)c1 [Compound 76, 4-(((2-chloro-4-cyanophenyl)sulfonyl)difluoromethyl)-N-(pyridazin-4-yl)piperidine-1-carboxamide]
Myosin Activation (AC20): ++ (++ represents myosin activation value AC20 from 2 μM-5 μM)

CCC(F)(C1CCN(C(=O)Nc2ccnnc2)CC1)S(=O)(=O)c1cccc(F)c1 (stereo not drawn) [Compound 77, 4-(1-fluoro-1-((3-fluorophenyl)sulfonyl)propyl)-N-(pyridazin-4-yl)piperidine-1-carboxamide]
Myosin Activation (AC20): ++ (++ represents myosin activation value AC20 from 2 μM-5 μM)

Cn1cc(S(=O)(=O)C(F)(F)C2CCN(C(=O)Nc3ccc(C#N)nc3)CC2)c(C(F)F)n1 [Compound 78, N-(6-cyanopyridin-3-yl)-4-(((3-(difluoromethyl)-1-methyl-1H-pyrazol-4-yl)sulfonyl)difluoromethyl)piperidine-1-carboxamide]
Myosin Activation (AC20): + (+ represents myosin activation value AC20 > 5 μM)

Cn1cc(S(=O)(=O)C(F)(F)C2CCN(C(=O)Nc3ccnc(F)c3)CC2)c(C(F)F)n1 [Compound 79, 4-(((3-(difluoromethyl)-1-methyl-1H-pyrazol-4-yl)sulfonyl)difluoromethyl)-N-(2-fluoropyridin-4-yl)piperidine-1-carboxamide]
Myosin Activation (AC20): + (+ represents myosin activation value AC20 > 5 μM)

Cc1ccc(NC(=O)N2CCC(C(F)(F)S(=O)(=O)c3cn(C)nc3C(F)F)CC2)cn1 [Compound 80, 4-(((3-(difluoromethyl)-1-methyl-1H-pyrazol-4-yl)sulfonyl)difluoromethyl)-N-(6-methylpyridin-3-yl)piperidine-1-carboxamide]
Myosin Activation (AC20): + (+ represents myosin activation value AC20 > 5 μM)

Cn1cc(S(=O)(=O)C(F)(F)C2CCN(C(=O)Nc3ccc(F)nc3)CC2)c(C(F)F)n1 [Compound 81, 4-(((3-(difluoromethyl)-1-methyl-1H-pyrazol-4-yl)sulfonyl)difluoromethyl)-N-(6-fluoropyridin-3-yl)piperidine-1-carboxamide]
Myosin Activation (AC20): + (+ represents myosin activation value AC20 > 5 μM)

Cn1cc(S(=O)(=O)C(F)(F)C2CCN(C(=O)Nc3ccon3)CC2)c(C(F)F)n1 [Compound 82, 4-(((3-(difluoromethyl)-1-methyl-1H-pyrazol-4-yl)sulfonyl)difluoromethyl)-N-(isoxazol-3-yl)piperidine-1-carboxamide]
Myosin Activation (AC20): + (+ represents myosin activation value AC20 > 5 μM)

Cn1cc(S(=O)(=O)C(F)(F)C2CCN(C(=O)Nc3ccnnc3)CC2)c(C(F)F)n1 [Compound 83, 4-(((3-(difluoromethyl)-1-methyl-1H-pyrazol-4-yl)sulfonyl)difluoromethyl)-N-(pyridazin-4-yl)piperidine-1-carboxamide]
Myosin Activation (AC20): ++ (++ represents myosin activation value AC20 from 2 μM-5 μM)

Cn1cnc(S(=O)(=O)C(F)(F)C2CCN(C(=O)Nc3ccnnc3)CC2)c1 [Compound 84, 4-(difluoro((1-methyl-1H-imidazol-4-yl)sulfonyl)methyl)-N-(pyridazin-4-yl)piperidine-1-carboxamide]
Myosin Activation (AC20): + (+ represents myosin activation value AC20 > 5 μM)

CCn1nccc1S(=O)(=O)C(F)(F)C1CCN(C(=O)Nc2ccnnc2)CC1 [Compound 85, 4-(((1-ethyl-1H-pyrazol-5-yl)sulfonyl)difluoromethyl)-N-(pyridazin-4-yl)piperidine-1-carboxamide]
Myosin Activation (AC20): + (+ represents myosin activation value AC20 > 5 μM)

O=C(Nc1ccnnc1)N1CCC(C(F)(F)S(=O)(=O)c2ccccc2-n2cncn2)CC1 [Compound 86, 4-(((2-(1H-1,2,4-triazol-1-yl)phenyl)sulfonyl)difluoromethyl)-N-(pyridazin-4-yl)piperidine-1-carboxamide]
Myosin Activation (AC20): ++ (++ represents myosin activation value AC20 from 2 μM-5 μM)
